This note sets out measurements from US20210275513A1, “SHELLAC MICROCAPSULE FORMULATIONS AND COMPOSITIONS FOR TOPICAL INTESTINAL DELIVERY OF VITAMIN B3” (CONARIS RESEARCH INSTITUTE AG, priority 2016, published 2021).

Each structure is given as a SMILES string. Values joined by “and” are separate entries in the source; they are usually repeats but may differ in a detail not shown here. Equal entries are not always repeated.

The nature of data set [1]: First-in-man (FIM) dose escalation study: NA and NAM serum levels by LC-MS/MS. The class given is in vivo, human.
Description: (§1) Ten healthy volunteers were included and allocated to 2 groups of 5 subjects each. One group received NA and the other group received NAM.
In this dose escalation study, subjects ingested the test items in the morning from Monday to Thursday of every week, followed by a three-day washout period from Friday to Sunday (Table 7). Before and until 30 min after administration (or until after the second blood sampling on Mondays), subjects fasted with water only. During week 1, the subjects took one daily dose of 30 mg unformulated NA or 900 mg unformulated NAM, respectively, to measure the maximum systemic exposure and peak serum levels according to nutritional tolerable upper intake levels or levels without anticipated side effects (Table 8). From week 2 until week 6, NA microcapsules or NAM microcapsules packaged in gelatin capsules (see Example 1) were administered with weekly dose increases (Tables 7 and 8).
Blood samples were collected on Mondays and Thursdays (Table 7). On Mondays, the first blood sample was collected before ingestion of the capsules (“0 h” samples), and a second blood sample was taken after 2 hours (“2 h”), while subjects were still fasting. […] In addition, NA and NAM levels were measured in all blood samples by LC-MS/MS in an external specialised laboratory to determine exposure (see Example 1).
The test system of a further data set is intestinal microbiota. Description: FIM study: microbiota analyses of stool samples (16S rRNA V3-V4 sequencing). Format: in vivo, human. The note with it: for abundance-based (Bray curtis) bacterial communities distance compared with a healthy normal reference group: baseline vs end of FIM study. The text has this: For microbiota analyses, stool samples were collected on the first Monday of the study (day 0, baseline sample) and subsequently once weekly on Thursdays (Table 7). Total genomic DNA was extracted from feces collected longitudinally from each subject using MoBio Powersoil DNA Isolation kit (Dianova GmbH, Hamburg, Germany) according to the manufacturer's instructions. Aliquots of extracted DNA were used to amplify the V3-V4 variable region of 16S rRNA using composite primers (319F and 806R), as described by Fadrosh et al. (Microbiome 2:6, 2014). Amplification was performed by Phusion® hot start flex 2X master mix (New England Biolabs, Frankfurt/M., Germany) in a GeneAmp PCR system 9700 (Life Technologies/Applied Biosystems, Darmstadt, Germany) using the following cycling conditions: an initial denaturation of 3 min at 98° C. followed by 30 cycles of denaturation at 98° C. for 10 s, annealing at 55° C. for 30 s and elongation at 72° C. for 30 s, and a final extension step at 72° C. for 10 min. PCR performance was assessed by agarose gel electrophoresis for quality (expected amplicon size) and quantity (band intensity). Quantitative normalization was performed using the SequalPrep kit (Life/Technologies/Invitrogen, Darmstadt, Germany) to pool equal amounts of amplicons per sample. Sequencing was performed by Illumina MiSeq (2×250 sequencing kit; Illumina, San Diego, Calif., USA), which allowed to generate paired end reads with entire overlapping in contigs generation. Sequencing reads were primarily processed for quality control using the software mothur (Schloss et al. 2009, Appl. Environ. Microbiol. 75:7537). Forward and reverse reads (fastq) were assembled to contig sequences and discarded if they had more than 475 bases, any ambiguous base or more than 8 homopolymers. Sequences were aligned against the mothur-curated silva alignment database and screened to have alignment in the amplified specified V3-V4 region only. Chimeric sequences were detected with the Uchime algorithm (Edgar et al. 2011, Bioinformatics 27:2194) and were also removed. […]

Data set [2] is described as follows: FIM dose escalation study: safety parameters (routine laboratory, blood pressure, body weight). Conditions: week 1 hour 71: 30 mg free NA (NA group) or 900 mg free NAM (NAM group) daily; individual subjects.
Description: as §1
In this dose escalation study, subjects ingested the test items in the morning from Monday to Thursday of every week, followed by a three-day washout period from Friday to Sunday (Table 7). Before and until 30 min after administration (or until after the second blood sampling on Mondays), subjects fasted with water only. During week 1, the subjects took one daily dose of 30 mg unformulated NA or 900 mg unformulated NAM, respectively, to measure the maximum systemic exposure and peak serum levels according to nutritional tolerable upper intake levels or levels without anticipated side effects (Table 8).
In order to determine the intake of NA and NAM via the usual diet, a nutritional protocol was completed by the subjects from Mondays to Wednesdays. Blood samples were collected on Mondays and Thursdays (Table 7). On Mondays, the first blood sample was collected before ingestion of the capsules (“0 h” samples), and a second blood sample was taken after 2 hours (“2 h”), while subjects were still fasting. On Thursdays, blood samples were taken after administration of the capsules (“72 h”). Blood samples were subjected to routine laboratory analyses at the central laboratory of the University Hospital Schleswig-Holstein in Kiel (Germany). […] Blood pressure was measured on Mondays and Thursdays (Table 7).
Data set [3] is described as follows: pH properties of shellac and NAM (dissolution pH, pH value). The class given is physicochemical.
A short description of data set [4]: Pilot pharmacokinetic (PK) study with NAM microcapsules: NA and NAM serum levels. The class given is in vivo, human. Here is the method:
The study was a self-experiment by medical investigators performed at the Department of Internal Medicine 1 of the University Hospital Schleswig-Holstein, Campus Kiel (Kiel, Germany).
In this study, subjects ingested either 900 mg of unformulated NAM (first week) or 900 mg of microencapsulated NAM packaged in gelatin capsules (second week). […] One such “low niacin meal” consisted of 150 g of apple, 150 g of red pepper and 100 g of cucumber. One niacin equivalent is defined as 1 mg of NA(M) or 60 mg of tryptophan.
Height and body weight were recorded before ingestion of the test item.

A further data set can be described thus: clinical. Conditions: both, human, in vivo, 900 mg, mean. Here is the method:
The study consisted of four study days, each separated by one week of washout and regeneration. On the calibration day of the study, the subjects ingested 30 mg of unformulated NA (NA group) or 900 mg of unformulated NAM (NAM group) as in the FIM study (see Example 2). Different doses of microencapsulated NA or NAM packaged in gelatin capsules were administered on the other three study days: 30 mg NA or 900 mg NAM, 150 mg NA or 1500 mg NAM, and 300 mg NA or 3000 mg NAM.
After 12 h of fasting overnight (with water only), a fasted blood sample was collected. After ingestion of NA, NAM or the respective capsules, blood samples were collected every hour until 8 hours after ingestion as well as after 10 and 12 hours. During the collection of blood samples, subjects remained fasted (with water ad libitum) except for two light meals with minimal vitamin B3 content after the blood samplings of hour 3 and hour 8. One such “low niacin meal” consisted of three rice wafers, one apple and one carrot with a total of 2.3 mg of niacin equivalents.
Statistical analyses were carried out using SPSS version 22.0 (SPSS, Chicago, Ill., USA), and graphic data analysis was performed with GraphPad Prism version 5.0 (GraphPad Software, San Diego, Calif., USA). […]

`O=C(O)c1cccnc1` [free NA, nicotinic acid]: the “accumulation (serum levels at 72 hours vs baseline levels)” value in data set [1] was “No NA or NAM accumulation was observed”. Further, the “abundance-based (Bray curtis) bacterial communities distance compared with a healthy normal reference group” value in the data set on intestinal microbiota is “significant change”. In addition, in the data set with intestinal microbiota (before, during and at the end of the FIM study), the “Bacteroidetes (read counts)” value is reported as “moderate, but overall significant increase”. In addition, in data set [2], the “Blood pressure, systolic” value is 120 mm Hg and 130 mm Hg (2×) and 115 mm Hg and 105 mm Hg; the Glucose was 77 mg/dL and 92 mg/dL and 89 mg/dL and 85 mg/dL and 94 mg/dL.
By AUC is commonly meant concentration integrated over time. Low values mean less exposure, high ones more exposure. On to `NC(=O)c1cccnc1` [free NAM, nicotinamide], for which, in data set [1], the “accumulation (serum levels at 72 hours vs baseline levels)” value is on record as “No NA or NAM accumulation was observed”. The pH value in data set [3] stood at 6.61. In the data set with intestinal microbiota, the “abundance-based (Bray curtis) bacterial communities distance compared with a healthy normal reference group” value is listed as “trend”. Also, the NAM serum levels was 19,900 μg/L and 20,100 μg/L in data set [4] (900 mg free or enc. NAM, hour 1, subjects 1-3); 15,900 μg/L and 17,200 μg/L in data set [4] (900 mg free or enc. NAM, hour 2, subjects 1-3); 9,740 μg/L and 13,100 μg/L in data set [4] (900 mg free or enc. NAM, hour 3, subjects 1-3); 7,390 μg/L and 10,300 μg/L in data set [4] (900 mg free or enc. NAM, hour 4, subjects 1-3). Also, the “time of peak of NAM serum levels after ingestion” value in data set [4] (900 mg, three healthy volunteers) stood at 1 h. In data set [4] (human, serum, oral, 900 mg, 900 mg free or enc. NAM, hour 1, subjects 1-3), this compound yielded a concentration at 1 h of 11600 ng/mL. The concentration at 2 h in data set [4] (human, serum, oral, 900 mg, 900 mg free or enc. NAM, hour 2, subjects 1-3) worked out at 10300 ng/mL. The concentration at 3 h in data set [4] (human, serum, oral, 900 mg, 900 mg free or enc. NAM, hour 3, subjects 1-3) was 8380 ng/mL. In data set [4] (human, serum, oral, 900 mg, 900 mg free or enc. NAM, hour 4, subjects 1-3), this compound came in with a concentration at 4 h of 5920 ng/mL. Further, in “clinical”, the exposure (AUC) came out at 78300 ng·h/mL. The “Blood pressure, systolic” value in data set [2] was 120 mm Hg (4×) and 105 mm Hg. In addition, the Glucose in data set [2] is 87 mg/dL and 80 mg/dL and 92 mg/dL and 84 mg/dL and 83 mg/dL.
